Results from patent US9765069B2, “Antimicrobial compounds” (OXFORD UNIVERSITY INNOVATION LIMITED, priority 2012, dated 2017).
In brackets after ≈: the same amount, converted by molar mass.

Key:
[1] = system: mammalian_red blood cell membrane; assay: In vitro mammalian red blood cell membrane lysis activity; assay type: cell-based; conditions: Active or inactive at 100 μM
Source text: (§1) These properties can be determined according to techniques that are well known in the art.

S26 = assay: MIC determination (bacteria), strain S26; assay type: cell-based, S. aureus; conditions: 2-fold broth dilution
Description: (§2) MIC determination (bacteria); MICs were determined based on Clinical and Laboratory Standards Institute (CLSI) methodology (Methods for dilution antimicrobial susceptibility tests for bacteria that grow aerobically; Approved Standard—seventh edition. 2006, M7-A7, CLSI, Wayne Pa.) by a 2-fold broth dilution technique in Mueller Hinton (pH7.4 Biorad). For S. pneumoniae, the medium was supplemented with 2.5% laked horse blood. For H. influenzae, the medium was haemophilus test medium (H.T.M.). Overnight cultures were diluted to obtain the final inoculum of 10^5 cfu/well. Incubation was 37° C. overnight in ambient air. The MIC was defined as the lowest concentration which inhibited all visual growth and expressed in μg/ml. For each bacterial species, all of the molecules were tested in the same experiment in order to give a head-to-head comparison.

S1 = assay: MIC determination (bacteria), strain S1; assay type: cell-based, S. aureus; conditions: 2-fold broth dilution
Description: as §2

H3 = assay: MIC determination (bacteria), strain H3; assay type: cell-based, H. influenzae; conditions: haemophilus test medium
Description: as §2

[2] = system: S2 (S. aureus 2, MRSA in vivo); assay: MIC determination (bacteria), strain S2; assay type: cell-based; conditions: 2-fold broth dilution
Description: as §2

H4 = assay: MIC determination (bacteria), strain H4; assay type: cell-based, H. influenzae; conditions: haemophilus test medium
Description: as §2

[3] = system: human embryonic kidney 293 cells; assay: in vitro toxicities against human embryonic kidney 293 cells; assay type: cell-based; conditions: human embryonic kidney 293 cells
Source text: as §1

P1 = assay: MIC determination (bacteria), strain P1; assay type: cell-based, S. pneumoniae; conditions: 2-fold broth dilution
Description: as §2

P9B = assay: MIC determination (bacteria), strain P9B; assay type: cell-based, S. pneumoniae; conditions: 2-fold broth dilution
Description: as §2

E1 = assay: MIC determination (bacteria), strain E1; assay type: cell-based, enterococcus; conditions: 2-fold broth dilution
Description: as §2

P9 = assay: MIC determination (bacteria), strain P9; assay type: cell-based, S. pneumoniae; conditions: 2-fold broth dilution
Description: as §2

S4 = assay: MIC determination (bacteria), strain S4; assay type: cell-based, S. aureus; conditions: 2-fold broth dilution
Description: as §2

[4] = system: human peripheral blood cells; assay: in vitro toxicities human peripheral blood cells; assay type: cell-based; conditions: human peripheral blood cells
Source text: as §1

S. aureus membrane = assay: In vitro activity in depolarization of S. aureus membrane; assay type: cell-based; conditions: read-out: DEP (IC50)
Source text: as §1

E2 = assay: MIC determination (bacteria), strain E2; assay type: cell-based, enterococcus; conditions: 2-fold broth dilution
Description: as §2

[5] = Streptococcus pneumoniae, Table 2

Structure (SMILES)	RBC membrane lysis activity (active/inactive) [1]	MIC S26 (S26; Table 1)	MIC S1 (S1; Table 1)	MIC H3 (H3; Table 1)	MIC S2 ([2]; Table 1)	Hek293 (LD50, μM) [3]	MIC P1 (P1; Table 1)	MIC P9B (P9B; Table 1)	MIC E1 (E1; Table 1)	MIC S26 (S26; Table 2)	MIC S1 (S1; Table 2)	MIC H3 (H3; Table 2)	MIC S2 ([2]; Table 2)	MIC H4 (H4; Table 2 and its footnote f)	MIC P1 (P1; Table 2)	MIC P9B (P9B; Table 2)	MIC E1 (E1; Table 2)	MIC P9 (P9; Table 2)	MIC S4 (S4; Table 2)	MIC E2 (E2; Table 2)	also measured
CCCCCCCC=CC(=O)N1C(=O)C(=C(C)O)C(=O)C1CC(C)C (stereo not drawn) [23a]	Inactive^d	16 µg/mL (≈ 45.8 µM)	8 µg/mL (≈ 22.9 µM)	64 µg/mL (≈ 183 µM)	8 µg/mL (≈ 22.9 µM)	90.9 µM	2 µg/mL (≈ 5.72 µM)	4 µg/mL (≈ 11.4 µM)	8 µg/mL (≈ 22.9 µM)												MIC H4 (H4; Table 1): 4 µg/mL (≈ 11.4 µM); MIC P9 (P9; Table 1): 1 µg/mL (≈ 2.86 µM); MIC S4 (S4; Table 1): 8 µg/mL (≈ 22.9 µM); PMBC (LD50, μM) [4]: 90.9 µM; IC50 (S. aureus membrane): 88 µM; MIC E2 (E2; Table 1): 4 µg/mL (≈ 11.4 µM)
CCCCCCCC=CC(=O)N1C(=O)C(=C(O)CCC)C(=O)C1CC(C)C (stereo not drawn) [23b]	Inactive^d	0.5 µg/mL (≈ 1.32 µM)	<0.06 µg/mL	>64 µg/mL	0.25 µg/mL (≈ 0.662 µM)	90.9 µM	0.25 µg/mL (≈ 0.662 µM)	1 µg/mL (≈ 2.65 µM)	0.25 µg/mL (≈ 0.662 µM)												MIC H4 (H4; Table 1): 2 µg/mL (≈ 5.3 µM); MIC P9 (P9; Table 1): 0.12 µg/mL (≈ 0.318 µM); MIC S4 (S4; Table 1): 0.25 µg/mL (≈ 0.662 µM); PMBC (LD50, μM) [4]: 90.9 µM; IC50 (S. aureus membrane): 49.5 µM; MIC E2 (E2; Table 1): <0.06 µg/mL
CCCCCCCC=CC(=O)N1C(=O)C(=C(O)CCCCC)C(=O)C1CC(C)C (stereo not drawn) [23c]	Inactive^d	0.5 µg/mL (≈ 1.23 µM)	0.25 µg/mL (≈ 0.616 µM)	>64 µg/mL	0.5 µg/mL (≈ 1.23 µM)	30.3 µM	<0.06 µg/mL	2 µg/mL (≈ 4.93 µM)	0.25 µg/mL (≈ 0.616 µM)												MIC P9 (P9; Table 1): <0.06 µg/mL; MIC S4 (S4; Table 1): 0.5 µg/mL (≈ 1.23 µM); PMBC (LD50, μM) [4]: 30.3 µM; IC50 (S. aureus membrane): 19.6 µM; MIC E2 (E2; Table 1): 0.12 µg/mL (≈ 0.296 µM)
Cc1ccccc1C(=O)N1CC(=O)C(=C(O)CCCCC2CCCCC2)C1=O [27s]										16 µg/mL (≈ 41.7 µM)	16 µg/mL (≈ 41.7 µM)	32 µg/mL (≈ 83.4 µM)	16 µg/mL (≈ 41.7 µM)	4 µg/mL (≈ 10.4 µM)	2 µg/mL (≈ 5.22 µM)	16 µg/mL (≈ 41.7 µM)	8 µg/mL (≈ 20.9 µM)	2 µg/mL (≈ 5.22 µM)	16 µg/mL (≈ 41.7 µM)	8 µg/mL (≈ 20.9 µM)	
CCCCCCC(=O)N1CC(=O)C(=C(O)CCCCc2ccccc2)C1=O [28b]										4 µg/mL (≈ 10.8 µM)	2 µg/mL (≈ 5.38 µM)	8 µg/mL (≈ 21.5 µM)	2 µg/mL (≈ 5.38 µM)	2 µg/mL (≈ 5.38 µM)	0.5 µg/mL (≈ 1.35 µM)	2 µg/mL (≈ 5.38 µM)	2 µg/mL (≈ 5.38 µM)	0.25 µg/mL (≈ 0.673 µM)	2 µg/mL (≈ 5.38 µM)	1 µg/mL (≈ 2.69 µM)	
CCCCCCC(=O)N1CC(=O)C(=C(O)CCc2ccc(SC)cc2)C1=O [28d]										32 µg/mL (≈ 82.2 µM)	4 µg/mL (≈ 10.3 µM)	4 µg/mL (≈ 10.3 µM)	8 µg/mL (≈ 20.5 µM)	1 µg/mL (≈ 2.57 µM)	0.5 µg/mL (≈ 1.28 µM)	4 µg/mL (≈ 10.3 µM)	1 µg/mL (≈ 2.57 µM)	0.5 µg/mL (≈ 1.28 µM)	16 µg/mL (≈ 41.1 µM)	2 µg/mL (≈ 5.13 µM)	
CSCCC1C(=O)C(=C(O)CC23CC4CC(CC(C4)C2)C3)C(=O)N1C(C)=O (stereo not drawn) [31d]										32 µg/mL (≈ 81.7 µM)	16 µg/mL (≈ 40.9 µM)	32 µg/mL (≈ 81.7 µM)	32 µg/mL (≈ 81.7 µM)	4 µg/mL (≈ 10.2 µM)	8 µg/mL (≈ 20.4 µM)	8 µg/mL (≈ 20.4 µM)	16 µg/mL (≈ 40.9 µM)	8 µg/mL (≈ 20.4 µM)	16 µg/mL (≈ 40.9 µM)	16 µg/mL (≈ 40.9 µM)	
CSCCC1C(=O)/C(=C(/O)CC(C)(C)CC(=O)OCCC23CC4CC(CC(C4)C2)C3)C(=O)N1C(C)=O (stereo not drawn) [31i]																					MIC (S26; Staphylococcus aureus, Table 2): > 64 µg/mL; MIC (S1; Staphylococcus aureus, Table 2): 8 µg/mL (≈ 15.4 µM); MIC (H3; Haemophilus influenzae, Table 2): > 64 µg/mL; MIC ([2]; Staphylococcus aureus, MRSA, Table 2): 8 µg/mL (≈ 15.4 µM); MIC (H4; Haemophilus influenzae, Table 2 and its footnote f): 8 µg/mL (≈ 15.4 µM); MIC (P1; [5]): 2 µg/mL (≈ 3.85 µM); MIC (P9B; [5]): 4 µg/mL (≈ 7.7 µM); MIC (E1; Enterococcus, Table 2): 2 µg/mL (≈ 3.85 µM); MIC (P9; [5]): 1 µg/mL (≈ 1.92 µM); MIC (S4; Staphylococcus aureus, Table 2): 16 µg/mL (≈ 30.8 µM); MIC (E2; Enterococcus, Table 2): 1 µg/mL (≈ 1.92 µM)
